In publication PMC5962351 (Nature, 2018):

What was measured:
Type in all cases: binding
[1] = molecular target: GluN1 (GluN1/GluN2B NMDA receptor) (Xenopus laevis, UniProt A0A1L8F5J9+A7XY94)
[2] = molecular target: GluN1 (GluN1/GluN2B ∆ATD NMDA receptor) (Xenopus laevis, UniProt A0A1L8F5J9+A7XY94, A0A1L8F5J9:DEL23-393/A0A1L8F5J9:G610R); test: X-ray crystal structure
[3] = molecular target: GluN1 (GluN1/GluN2B NMDA receptor) (Xenopus laevis, UniProt A0A1L8F5J9+A7XY94, A0A1L8F5J9:G610R); test: competition with 3H-MK-801, scintillation proximity assay

| SMILES | Kd [1] | Kd [2] | Ki [3] |
| --- | --- | --- | --- |
| C[C@]12N[C@H](Cc3ccccc31)c1ccccc12 [MK-801] | 111 ± 8.5 nM | 1600 ± 300 nM | – |
| CC12CC3CC(C)(C1)CC(N)(C3)C2 [memantine] | – | – | ~147000 nM |
